Where two headings read alike, the source gives them in different places.
Columns and labels:
[1] = test system: Haspin; design: method as in PMID 23071153, PMID 23071152, PMID 21804608, PMID 19734450, PMID 18978305; details: Figure 1, known Haspin inhibitors; cited from earlier work
[2] = biological target: T1, HsHaspin (Homo sapiens, UniProt Q8TF76); assay: Recombinant Haspin kinase assay ([γ-33P]ATP, 15 µM ATP; some values ADP-Glo); type: biochemical; details: for IC50 / Haspin inhibitory activity (in words): recombinant HsHaspin; for IC50: in vitro
T1 construct: aa470-798; made in house; host or cells: E. coli
T1 sequence (Q8TF76 470-798): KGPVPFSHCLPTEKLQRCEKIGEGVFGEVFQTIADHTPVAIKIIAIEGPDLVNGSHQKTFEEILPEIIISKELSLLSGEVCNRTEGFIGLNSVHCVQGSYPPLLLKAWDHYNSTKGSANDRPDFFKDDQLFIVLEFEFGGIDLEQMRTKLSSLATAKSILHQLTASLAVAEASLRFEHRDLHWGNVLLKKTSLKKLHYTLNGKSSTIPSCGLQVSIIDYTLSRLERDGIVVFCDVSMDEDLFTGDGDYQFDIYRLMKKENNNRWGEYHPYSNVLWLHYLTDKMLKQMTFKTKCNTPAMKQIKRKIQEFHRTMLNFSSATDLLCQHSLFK
Protocol: (§1) Values are IC50 expressed in µM and calculated from dose–response curves (each point on the curves was performed in triplicate). Selectivity indexes (SI; in brackets) are calculated as follows: SI = IC50 kinase X/IC50 Haspin. ND: not determined. *IC50 values obtained using the ADP-Glo methodology (see Experimental section, Supplementary Material). […]
(§2) A, HsCdk9/Cyclin T). Native SscCK1δ /ε and SscGSK3α/β were purified from pig brain whereas HsPlk1, HsCdk1 and HsAurora B were purchased from ProQinase and SignalChem respectively. Kinase assays were performed in […]
(§3) mCi/ml; PerkinElmer) in a final volume of 30 µl as previously reported 51. After 30 min incubation at 30°C, the reaction mix was spotted onto GE healthcare P81 phosphocellulose paper using a FilterMate Harvester (PerkinElmer), and the filter was extensively washed with a 1% phosphoric acid solution. The wet filter-bound radioactivity was determined in the presence of 20 µl scintillation fluid (GE healthcare) with a TopCount® Scintillation and Luminescence Counter (PerkinElmer). IC50 values were calculated from dose-response curves […]
(§4) Kinase activities using the ADP-Glo methodology (ADP-Glo Kinase Assay; Promega) were assayed according to the assay described in Nguyen et al. 52 and Ibrahim et al. 53. […]

[3] = biological target: T2, HsCdk2/Cyclin A (Homo sapiens, UniProt P24941); assay: CDK2 kinase assay; type: biochemical; details: read-out: IC50 CDK2
T2 construct: made in house; host or cells: baculovirus/Sf9 cells
Protocol: as §1, §2, §3, §4

[4] = biological target: T3, HsCDK1 (Homo sapiens, UniProt P06493); assay: CDK1 kinase assay; type: biochemical; details: for SI CDK1/Haspin: SI = IC50 CDK1/IC50 Haspin; for IC50: Table 4, read-out: IC50 HsCDK1
T3 construct: purchased ProQinase
Protocol: We therefore tested our compounds on two obvious candidates, HsCDK1 and HsPLK1 (Polo-like_kinase 1) both required for mitotic entry[50]
(§5) Values are IC50 expressed in µM and calculated from dose–response curves (each point from the curves was performed in duplicate). NR: not relevant. […]
(§6) Recombinant protein kinases were expressed and purified from E. coli (HsHaspin kinase domain aa470-798, HsCdk5/p25, RnDYRK1A kinase domain aa1-499, HsPIM1, MmCLK1) or baculovirus/Sf9 cells (HsCdk2/Cyclin A, HsCdk9/Cyclin T). Native SscCK1δ /ε and SscGSK3α/β were purified from pig brain whereas HsPlk1, HsCdk1 and HsAurora B were purchased from ProQinase and SignalChem respectively. Kinase assays were performed in specific buffers and substrates for each kinase tested in the presence of 15 µM [γ-33P] ATP (3,000 Ci/mmol, 10 mCi/ml; PerkinElmer) in a final volume of 30 µl as previously reported 51. After 30 min incubation at 30°C, the reaction mix was spotted onto GE healthcare P81 phosphocellulose paper using a FilterMate Harvester (PerkinElmer), and the filter was extensively washed with a 1% phosphoric acid solution. The wet filter-bound radioactivity was determined in the presence of 20 µl scintillation fluid (GE healthcare) with a TopCount® Scintillation and Luminescence Counter (PerkinElmer). IC50 values were calculated from dose-response curves

[5] = biological target: T4, HsPLK1 (Homo sapiens, UniProt P53350); assay: PLK1 kinase assay; type: biochemical; details: Table 4
T4 construct: purchased ProQinase
Protocol: . We therefore tested our compounds on two obvious candidates, HsCDK1 and HsPLK1 (Polo-like_kinase 1) both required for mitotic entry[50] (Table 4).
as §5, §6

[6] = test system: RPE-1; assay: Cell viability, monolayer (2D), MTS assay; type: cell-based; details: Homo sapiens, 48 h
[7] = test system: U-2 OS; assay: Cell viability, monolayer (2D), MTS assay; type: cell-based; details: Homo sapiens, U2OS, 48 h
[8] = test system: SH-SY5Y; assay: Cell viability, monolayer (2D), MTS assay; type: cell-based; details: Homo sapiens, 48 h
[9] = test system: HCT116; assay: Cell viability, monolayer (2D), MTS assay; type: cell-based; details: Homo sapiens, HCT-116, 48 h
[10] = test system: HBL100; assay: Cell viability, monolayer (2D), MTS assay; type: cell-based; details: Homo sapiens, HBL-100, 48 h
[11] = test system: U-2 OS spheroids; assay: Spheroid (3D) viability, CellTiter-Glo; type: cell-based, human; details: 5 µM; for viability at 5 µM: Homo sapiens, U2OS
[12] = test system: Haspin activity (H3T3ph) in U-2 OS cells; assay: In-cell Haspin activity, H3T3ph immunofluorescence; type: cell-based, human; details: 24 h; for H3T3ph signal remaining in prometaphase cells (% of ctrl): 0.5 µM
[13] = test system: U-2 OS cells; assay: Scratch wound cell migration assay (IncuCyte); type: cell-based, human; details: 0.6 µM, 0.5% FBS, normalised against DMSO control (100%)
[14] = biological target: T5, HsAurora B (Homo sapiens, UniProt Q96GD4); assay: Aurora B kinase assay; type: biochemical
T5 construct: purchased SignalChem
Protocol: as §1
as §6, with “curves […]” for “curves”
as §4

[15] = test system: HCT116 spheroids; assay: Spheroid (3D) viability, CellTiter-Glo; type: cell-based, human; details: 5 µM, 10 days, Figure 4(A)
[16] = test system: HBL100 spheroids; assay: Spheroid (3D) viability, CellTiter-Glo; type: cell-based, human; details: Figure 4(A)
[17] = test system: U-2 OS cells; assay: Cell cycle analysis by flow cytometry (propidium iodide); details: 2.5 µM, 24 h, U-2 OS

T5 sequence (Q96GD4 whole entry): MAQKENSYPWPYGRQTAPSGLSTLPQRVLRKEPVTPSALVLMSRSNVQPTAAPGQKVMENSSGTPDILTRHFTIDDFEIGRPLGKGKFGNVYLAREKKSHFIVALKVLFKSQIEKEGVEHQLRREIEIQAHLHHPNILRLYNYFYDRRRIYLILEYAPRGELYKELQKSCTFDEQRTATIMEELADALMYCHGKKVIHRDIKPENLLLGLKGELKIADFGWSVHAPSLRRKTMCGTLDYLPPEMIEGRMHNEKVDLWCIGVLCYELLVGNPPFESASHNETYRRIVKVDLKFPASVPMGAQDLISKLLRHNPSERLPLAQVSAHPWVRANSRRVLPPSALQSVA
T4 sequence (P53350 whole entry): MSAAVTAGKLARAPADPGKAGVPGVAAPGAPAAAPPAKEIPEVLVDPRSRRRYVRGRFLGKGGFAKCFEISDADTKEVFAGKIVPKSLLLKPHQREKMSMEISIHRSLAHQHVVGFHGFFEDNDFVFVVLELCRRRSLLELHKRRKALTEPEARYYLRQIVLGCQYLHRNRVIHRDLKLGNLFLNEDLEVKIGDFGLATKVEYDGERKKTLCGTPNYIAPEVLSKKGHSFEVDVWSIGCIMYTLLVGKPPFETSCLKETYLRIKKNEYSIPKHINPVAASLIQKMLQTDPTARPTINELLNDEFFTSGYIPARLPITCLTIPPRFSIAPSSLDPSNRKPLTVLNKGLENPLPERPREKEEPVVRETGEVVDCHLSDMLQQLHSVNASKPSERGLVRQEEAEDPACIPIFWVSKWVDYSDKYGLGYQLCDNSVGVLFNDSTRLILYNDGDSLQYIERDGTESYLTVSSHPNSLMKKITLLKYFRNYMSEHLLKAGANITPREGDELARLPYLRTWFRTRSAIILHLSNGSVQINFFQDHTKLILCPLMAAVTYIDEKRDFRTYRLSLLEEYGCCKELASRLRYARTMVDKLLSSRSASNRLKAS
T3 sequence (P06493 whole entry): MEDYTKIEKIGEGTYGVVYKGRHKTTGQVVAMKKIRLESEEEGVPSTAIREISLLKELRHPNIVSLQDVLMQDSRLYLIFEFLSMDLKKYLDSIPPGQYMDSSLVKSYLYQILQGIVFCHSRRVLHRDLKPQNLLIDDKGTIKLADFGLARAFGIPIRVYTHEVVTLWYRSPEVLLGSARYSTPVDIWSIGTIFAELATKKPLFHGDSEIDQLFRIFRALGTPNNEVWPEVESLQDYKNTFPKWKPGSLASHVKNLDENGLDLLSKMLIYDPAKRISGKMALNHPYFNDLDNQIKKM
T3 sequence (P14635 whole entry partner): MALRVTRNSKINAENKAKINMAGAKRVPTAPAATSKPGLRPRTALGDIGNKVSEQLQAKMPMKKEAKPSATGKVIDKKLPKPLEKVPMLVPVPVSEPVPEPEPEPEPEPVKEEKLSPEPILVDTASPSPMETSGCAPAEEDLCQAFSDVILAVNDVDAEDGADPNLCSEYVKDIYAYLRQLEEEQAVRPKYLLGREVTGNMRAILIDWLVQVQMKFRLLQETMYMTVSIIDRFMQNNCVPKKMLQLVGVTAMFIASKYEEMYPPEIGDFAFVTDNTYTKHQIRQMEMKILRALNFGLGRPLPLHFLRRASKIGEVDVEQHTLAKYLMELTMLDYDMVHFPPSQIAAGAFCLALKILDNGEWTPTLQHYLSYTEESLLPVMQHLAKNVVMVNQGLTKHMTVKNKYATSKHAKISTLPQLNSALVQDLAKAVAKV

CCCOc1ccc2ncc(-c3ccc4[nH]ncc4c3)n2n1 [Compound 13]
melting point: 198 to 200 °C

c1cc2[nH]ncc2cc1-c1cnc2ccc(NC3CCCC3)nn12 [Compound 9]
IC50 [2]: 31 nM | melting point: 195 to 197 °C

COc1ccc2c(c1)[nH]c1c(C)nccc12 [Harmine]
IC50 [1]: 590 nM

c1cc2[nH]ncc2cc1-c1cnc2ccc(OC[C@H]3CNCCO3)nn12 [Compound 22]
IC50 [2]: 12 nM | IC50 [3]: 5300 nM | SI CDK1/Haspin [4]: 239 | IC50 [4]: 2870 nM | IC50 [5]: > 10000 nM | EC50 [6]: 6000 nM | EC50 [7]: 8600 nM | EC50 [8]: > 10000 nM | EC50 [9]: > 10000 nM | EC50 [10]: > 10000 nM | U-2 OS spheroid remaining viability ([11]; 2 days, Figure 4(B)): no effects | H3T3ph signal remaining in prometaphase cells (% of ctrl) [12]: 10.7% | inhibition at 0.05 µM ([12]; Homo sapiens, U2OS, 0.05 µM, read-out: inhibition of cellular Haspin activity): > 80% | normalised wound closure after 24 h [13]: around 100%

c1cc2[nH]ncc2cc1-c1cnc2ccc(N3CCCCC3)nn12 [Compound 11]
melting point: 231 to 233 °C

COc1ccc2c3ccnc(C(F)(F)F)c3n(CCCCN)c2c1 [LDN-211898]
IC50 [1]: 100 nM

CCCNc1ccc2ncc(-c3cnc(N)nc3)n2n1 [Compound 28, 3-(2-Aminopyrimidin-5-yl)-6-(propylamino)imidazo[1,2-b]pyridazine]
Aurora B inhibition at 10 µM (in words) [14]: did not affect this enzyme at 10 µM

c1cc2[nH]ncc2cc1-c1cnc2ccc(NC3CCCCC3)nn12 [Compound 10]
melting point: 240 to 242 °C

c1cc2[nH]ncc2cc1-c1cnc2ccc(OC[C@@H]3COCCN3)nn12 [Compound 23]
IC50 [2]: 25 nM

CN1CCC(CNc2ccc3ncc(-c4cccc(OC(F)(F)F)c4)n3n2)CC1 [SGI-1776]
IC50 [1]: 34 nM

c1cc2[nH]ncc2cc1-c1cnc2ccc(OCC3CCCN3)nn12 (stereo not shown) [Compound 26]
Haspin inhibitory activity (in words) [2]: very active

CCOc1ccc2ncc(-c3ccc4[nH]ncc4c3)n2n1 [Compound 14]
average SI ([2]; average selectivity index over the protein kinases tested vs Haspin): 23.6 | IC50 [2]: 69 nM | Aurora B inhibition (in words) [14]: did not inhibit Aurora B kinase | SI CDK1/Haspin [4]: 11.5 | IC50 [4]: 795 nM | IC50 [5]: > 10000 nM | EC50 [6]: 3700 nM | EC50 [7]: 2800 nM | EC50 [8]: > 10000 nM | EC50 [9]: 1700 nM | EC50 [10]: 9500 nM | viability at 5 µM ([11]; 48 h, 2 days, Figure 4(B), read-out: U-2 OS spheroid remaining viability): 6.9% | viability at 5 µM ([11]; 240 h, 10 days, Figure 4(A), read-out: U-2 OS spheroid viability (% of DMSO control)): 5% | viability at 5 µM ([11]; 48 h, Figure 4(A), read-out: U-2 OS spheroid viability (% of DMSO control)): 33% | HCT116 spheroid viability [15]: remained mostly unresponsive | HBL100 spheroid viability ([16]; 5 µM, 10 days): remained mostly unresponsive | viability at 5 µM ([16]; Homo sapiens, HBL-100, 48 h, read-out: HBL-100 spheroid viability (% of DMSO control)): 73% | H3T3ph signal remaining in prometaphase cells (% of ctrl) [12]: 11.9% | normalised wound closure after 24 h [13]: 73% | melting point: 205 to 207 °C | cells in G2/M phase (% of cell total population) ([17]; DMSO control 12.8%): 24.4% | cells in S phase (% of cell total population) ([17]; DMSO control 51.9%): 45.2%

c1cc2[nH]ncc2cc1-c1cnc2ccc(OC[C@H]3COCCN3)nn12 [Compound 24]
IC50 [2]: 20 nM

c1cc2[nH]ncc2cc1-c1cnc2ccc(OCC3CCCN3)nn12 (stereo not shown) [Compound 25]
Haspin inhibitory activity (in words) [2]: very active

CCCNc1ccc2ncc(-c3cccc4ccccc34)n2n1 [Compound 29, 3-(Naphthalen-1-yl)-N-propylimidazo[1,2-b]pyridazin-6-amine]
IC50 [4]: > 10000 nM | IC50 [5]: > 10000 nM | EC50 [6]: > 10000 nM | EC50 [7]: > 10000 nM | EC50 [8]: > 10000 nM | EC50 [9]: > 10000 nM | EC50 [10]: > 10000 nM | normalised wound closure after 24 h [13]: around 100%

c1cnn2c(-c3ccc4[nH]ncc4c3)cnc2c1 [Compound 30, 3-(1H-Indazol-5-yl)imidazo[1,2-b]pyridazine]
Haspin inhibitory activity (in words) [2]: lost their activity for Haspin | Aurora B inhibition at 10 µM (in words) [14]: did not affect this enzyme at 10 µM

From PMC7580722, “Design of new disubstituted imidazo[1,2-b]pyridazine derivatives as selective Haspin inhibitors. Synthesis, binding mode and anticancer biological evaluation” (Journal of Enzyme Inhibition and Medicinal Chemistry, 2020)
